Experimental data published in patent publication US20260042764A1, “COMPOSITIONS AND METHODS FOR INHIBITION OF KRAS” (TheRas, Inc., priority 2022, published 2026).
pIC50: −log10 of the molar value.

Tests used:
HT1080 cells (NRAS) [1] = assay: 3D Cell viability assay in HT1080 cells (Biological Example 6); assay type: cell-based; details: Homo sapiens, HT-1080; HT1080 (NRAS) spheroids, 72 hours
Protocol: (§1) Biological Example 6: 3D Cell viability assay in AsPC-1, SW1900, HPAC, Capan-2, RKN, H358, HCT116, KP-2, H1573, A549, MKN1, and HT1080 cells
(§2) The inhibition of cellular viability as a result of test compound treatment in a spheroid assay was measured using the CellTiter-Glow 3D Cell Viability Assay (Promega).
(§3) On Day 1, 1000 cells per well were seeded in 150 μL of complete growth media supplemented with 10% fetal bovine serum (FBS) and incubated at 37° C., in the presence of 5% CO2 in 96-well ultra-low attachment microplates (Corning) for 48 hours undisturbed to allow spheroids to form.
(§4) Following spheroid formation, cells were treated with compounds diluted in DMSO at 0.25% final DMSO concentration. Compounds were dosed in a 9-point concentration curve with three-fold dilution between concentrations. Cells were incubated in the presence of compound for 72 hours at 37° C., in the presence of 5% CO2.
(§5) Following this incubation period, the kit-provided CTG reagent was allowed to equilibrate for 30 minutes at room temperature, 150 μL of equilibrated CTG reagent was added to each well, and the plate was sealed before shaking at 250 rpm for 10 minutes at room temperature to lyse the cells, 150 μL of lysate per well was transferred to a 96-well plate and luminescence was read on a CLARIOstar plate reader.
(§6) Data was imported into the Prism software package (Graphpad) and EC50 values were calculated using the log (inhibitor) vs, response—variable slope (Four parameters) model.

HCT116 cells (KRAS G13D) [2] = assay: 3D Cell viability assay in HCT116 cells (Biological Example 6); assay type: cell-based; details: Homo sapiens, HCT-116; HCT116 (KRAS G13D) spheroids, 72 hours
Protocol: as §1, §2, §3, §4, §5, §6

H1573 cells (KRAS G12A) [3] = assay: Cell-based pERK HTRF assay in H1573 cells (Biological Example 5); details: Homo sapiens, NCI-H1573
Protocol: (§7) Biological Example 5: Cell-based PERK HTRF assay in AsPC-1, SW1900, HPAC, Capan-2, RKN, H358, HCT116, KP-2, H1573, A549, MKN1, and HT1080 cells
(§8) The inhibition of ERK phosphorylation, as measured using the HTRF Advanced Phospho-ERK 1/2 (Thr202/Tyr204) Detection Assay kit (Perkin Elmer), was used to determine the effectiveness of test compounds in disrupting KRAS-driven protein/effector signaling in cells.
(§9) On day 1, cells were seeded into 96-well plates at 2.5×10^4 cells/well in 100 μL of complete growth media supplemented with 10% fetal bovine serum (FBS) and incubated at 37° C., in the presence of 5% CO2.
(§10) On day 2, cells were treated with compounds diluted in DMSO at 0.25% final DMSO concentration. Compounds were dosed in a 9-point concentration curve with three-fold dilution between concentrations. Cells were incubated in the presence of compound for two hours at 37° C. Following this treatment period, cells were harvested by aspirating the media, adding 40 μL of kit-supplied 1x lysis buffer per well, and shaking for 30 minutes at 250 rpm at room temperature.
(§11) Following cell lysis, samples were homogenized by pipetting up and down twenty times and 16 μL of cell lysate per well was transferred from the 96-well cell culture plate to two wells of a 384-well detection plate. A complete detection buffer was prepared by diluting D2 and Eu Cryptate antibodies 1:20 in kit-provided detection solution, 4 μL of complete detection buffer was then added to each well with lysate. Plates were incubated with gentle rocking for 24 hours at 4° C.
(§12) Following this incubation period, plates were centrifuged at 500×g for one minute and analyzed on a CLARIOstar plate reader. Data was imported into Microsoft Excel and the signal from the 665 nm channel was divided by the signal from the 620 nm channel. % pERK was calculated as: […]
(§13) Data was imported to the Prism software package (Graphpad) and EC50 values were calculated using the log (inhibitor) vs, response—variable slopc (Four parameters) model.

HT1080 cells (NRAS) [4] = assay: Cell-based pERK HTRF assay in HT1080 cells (Biological Example 5); details: Homo sapiens, HT-1080
Protocol: as §7, §8, §9, §10, §11, §12, §13

HCT116 cells (KRAS G13D) [5] = assay: Cell-based pERK HTRF assay in HCT116 cells (Biological Example 5); details: Homo sapiens, HCT-116
Protocol: as §7, §8, §9, §10, §11, §12, §13

H1573 cells (KRAS G12A) [6] = assay: 3D Cell viability assay in H1573 cells (Biological Example 6); assay type: cell-based; details: Homo sapiens, NCI-H1573; H1573 (KRAS G12A) spheroids, 72 hours
Protocol: as §1, §2, §3, §4, §5, §6

A549 cells (KRAS G12S) [7] = assay: Cell-based pERK HTRF assay in A549 cells (Biological Example 5); details: Homo sapiens
Protocol: as §7, §8, §9, §10, §11, §12, §13

HPAC cells (KRAS G12D) = assay: Cell-based pERK HTRF assay in HPAC cells (Biological Example 5); details: Homo sapiens, HPAC
Protocol: as §7, §8, §9, §10, §11, §12, §13

A549 cells (KRAS G12S) [8] = assay: 3D Cell viability assay in A549 cells (Biological Example 6); assay type: cell-based; details: Homo sapiens; A549 (KRAS G12S) spheroids, 72 hours
Protocol: as §1, §2, §3, §4, §5, §6

AsPC-1 cells (KRAS G12D) = assay: Cell-based pERK HTRF assay in AsPC-1 cells (Biological Example 5)
Protocol: as §7, §8, §9, §10, §11, §12, §13

[9] = Homo sapiens, ASPC1, AsPC-1 (KRAS G12D) cells

SMILES | pIC50 (HT1080 cells (NRAS) [1]) | pIC50 (HCT116 cells (KRAS G13D) [2]) | pIC50 (H1573 cells (KRAS G12A) [3]) | pIC50 (HT1080 cells (NRAS) [4]) | pIC50 (HCT116 cells (KRAS G13D) [5]) | pIC50 (H1573 cells (KRAS G12A) [6]) | pIC50 (A549 cells (KRAS G12S) [7]) | pIC50 (HPAC cells (KRAS G12D)) | pIC50 (A549 cells (KRAS G12S) [8]) | pIC50 (AsPC-1 cells (KRAS G12D); [9]) | pIC50 (AsPC-1 cells (KRAS G12D); AsPC-1 (KRAS G12D) cells)
N#Cc1c(N)sc2c(F)ccc(-c3c(C(F)(F)F)cc4c(N5CCCOCC5)nc(OC[C@@]56CCCN5C[C@H](F)C6)nc4c3F)c12 [Compound 232] | < 6.00 | ≥ 7.00 | ≥ 7.00 | < 6.00 | ≥ 7.00 | ≥ 7.00 | 6.00 to 7.00 | ≥ 7.00 | ≥ 7.00 |  | 
N#Cc1c(N)sc2c(F)ccc(-c3c(C(F)(F)F)cc4c(N5CC6CC5CO6)nc(OC[C@@]56CCCN5C[C@H](F)C6)nc4c3F)c12 (stereo partly shown) [Compound 147] | < 6.00 | 6.00 to 7.00 |  |  |  | ≥ 7.00 |  |  | ≥ 7.00 |  | 
CCN(c1nc(OC[C@@]23CCCN2C[C@H](F)C3)nc2c(F)c(-c3ccc(F)c4sc(N)c(C#N)c34)c(C(F)(F)F)cc12)[C@H]1CCN(C(=O)N2CC(F)C2)C1 (atropisomer, axis not shown) [Compound 606] |  |  |  |  |  |  |  | ≥ 7.00 |  | ≥ 7.00 | 
CCN(c1nc(OC[C@@]23CCCN2C[C@H](F)C3)nc2c(F)c(-c3ccc(F)c4sc(N)c(C#N)c34)c(C(F)(F)F)cc12)[C@H]1C[C@H](C)N(C(=O)[C@@H]2CC2(F)F)C1 (atropisomer, axis not shown) [Compound 751] |  | 6.00 to 7.00 |  |  | ≥ 7.00 |  |  | ≥ 7.00 |  |  | 
CCN(c1nc(OCC23CCCN2CC(F)C3)nc2c(F)c(-c3ccc(F)c4sc(N)c(C#N)c34)c(C(F)(F)F)cc12)C1CC(C)N(C(=O)N2CC(F)C2)C1 (stereo not shown) [Compound 759] |  |  |  |  |  |  |  |  |  |  | ≥ 7.00

The remaining lines, values ahead:

pIC50 (HT1080 cells (NRAS) [1]) | pIC50 (HCT116 cells (KRAS G13D) [2]) | pIC50 (H1573 cells (KRAS G12A) [3]) | pIC50 (HT1080 cells (NRAS) [4]) | pIC50 (HCT116 cells (KRAS G13D) [5]) | pIC50 (H1573 cells (KRAS G12A) [6]) | pIC50 (A549 cells (KRAS G12S) [7]) | pIC50 (HPAC cells (KRAS G12D)) | pIC50 (A549 cells (KRAS G12S) [8]) | pIC50 (AsPC-1 cells (KRAS G12D); [9]) | pIC50 (AsPC-1 cells (KRAS G12D); AsPC-1 (KRAS G12D) cells) | SMILES
< 6.00 | 6.00 to 7.00 | ≥ 7.00 | < 6.00 | ≥ 7.00 | ≥ 7.00 | ≥ 7.00 | < 6.00 | ≥ 7.00 |  |  | C[C@@H]1[C@H](N(C)c2nc(OC[C@@]34CCCN3C[C@H](F)C4)nc3c(F)c(-c4ccc(F)c5sc(N)c(C#N)c45)c(C(F)(F)F)cc23)CCN1C(=O)C1CC1 [Compound 258]
< 6.00 | 6.00 to 7.00 | ≥ 7.00 | < 6.00 | ≥ 7.00 | ≥ 7.00 | ≥ 7.00 | 6.00 to 7.00 | ≥ 7.00 |  |  | CCC(=O)N1CC[C@@H](N(C)c2nc(OC[C@@]34CCCN3C[C@H](F)C4)nc3c(F)c(-c4ccc(F)c5sc(N)c(C#N)c45)c(C(F)(F)F)cc23)[C@H]1C [Compound 260]
 |  |  |  |  |  |  | 6.00 to 7.00 |  | ≥ 7.00 |  | CCN(c1nc(OC[C@@]23CCCN2C[C@H](F)C3)nc2c(F)c(-c3ccc(F)c4sc(N)c(C#N)c34)c(C(F)(F)F)cc12)[C@H]1C[C@@H](C)N(C(=O)C2COC2)C1 (atropisomer, axis not shown) [Compound 586]
 |  |  |  |  |  |  | ≥ 7.00 |  | ≥ 7.00 |  | C/C=C/C(=O)N1CC[C@H](N(CC)c2nc(OC[C@@]34CCCN3C[C@H](F)C4)nc3c(F)c(-c4ccc(F)c5sc(N)c(C#N)c45)c(C(F)(F)F)cc23)C1 (atropisomer, axis not shown) [Compound 674]
 |  |  |  |  |  |  | < 6.00 |  | ≥ 7.00 |  | CCN(c1nc(OC[C@@]23CCCN2C[C@H](F)C3)nc2c(F)c(-c3ccc(F)c4sc(N)c(C#N)c34)c(C(F)(F)F)cc12)[C@H]1CCN(C(=O)C2CC2)[C@@H]1C (atropisomer, axis not shown) [Compound 579]
